According to patent US20040063662A1, “Selenophene anti-tumor agents” (priority 1996, published 2004):

Tests used:
SK-MEL-5 = assay: NCI human tumor cell panel: SK-MEL-5 (Melanoma); format: cell-based; details: SK-MEL-5, read-out: Log10 TGI (converted)
CAKI-1 = assay: NCI human tumor cell panel: CAKI-1 (Renal Cancer); format: cell-based
HL-60(TB) = assay: NCI human tumor cell panel: HL-60(TB) (Leukemia); format: cell-based
CCRF-CEM = assay: NCI human tumor cell panel: CCRF-CEM (Leukemia); format: cell-based
NCI-H23 = assay: NCI human tumor cell panel: NCI-H23 (Non-Small Cell Lung Cancer); format: cell-based
MDA-MB-231/ATCC = assay: NCI human tumor cell panel: MDA-MB-231/ATCC (Breast Cancer); format: cell-based; details: Homo sapiens, MDA-MB-231, MDA-MB-231/ATCC
786-0 = assay: NCI human tumor cell panel: 786-0 (Renal Cancer); format: cell-based
OVCAR-5 = assay: NCI human tumor cell panel: OVCAR-5 (Ovarian Cancer); format: cell-based
NCI-H522 = assay: NCI human tumor cell panel: NCI-H522 (Non-Small Cell Lung Cancer)
[1] = system: panel of sixty different human tumor cell lines; assay: NCI human tumor cell panel: whole panel (mean graph summary); details: whole panel
BT-549 = assay: NCI human tumor cell panel: BT-549 (Breast Cancer); format: cell-based
SNB-19 = assay: NCI human tumor cell panel: SNB-19 (CNS Cancer); format: cell-based
MCF7/ADR-RES = assay: NCI human tumor cell panel: MCF7/ADR-RES (Breast Cancer); format: cell-based
RXF-393 = assay: NCI human tumor cell panel: RXF-393 (Renal Cancer); format: cell-based
SN12C = assay: NCI human tumor cell panel: SN12C (Renal Cancer); format: cell-based
PC-3 = assay: NCI human tumor cell panel: PC-3 (Prostate Cancer); format: cell-based
SK-OV-3 = assay: NCI human tumor cell panel: SK-OV-3 (Ovarian Cancer); format: cell-based; details: SK-OV-3, read-out: Log10 GI50 (converted)
COLO 205 = assay: NCI human tumor cell panel: COLO 205 (Colon Cancer); format: cell-based
HS 578T = assay: NCI human tumor cell panel: HS 578T (Breast Cancer); format: cell-based
K-562 = assay: NCI human tumor cell panel: K-562 (Leukemia); format: cell-based
NCI-H226 = assay: NCI human tumor cell panel: NCI-H226 (Non-Small Cell Lung Cancer); format: cell-based
SK-MEL-2 = assay: NCI human tumor cell panel: SK-MEL-2 (Melanoma); format: cell-based
SF-268 = assay: NCI human tumor cell panel: SF-268 (CNS Cancer); format: cell-based
A498 = assay: NCI human tumor cell panel: A498 (Renal Cancer); format: cell-based
SK-MEL-28 = assay: NCI human tumor cell panel: SK-MEL-28 (Melanoma); format: cell-based
TK-10 = assay: NCI human tumor cell panel: TK-10 (Renal Cancer); format: cell-based
A549/ATCC = assay: NCI human tumor cell panel: A549/ATCC (Non-Small Cell Lung Cancer); format: cell-based
T-47D = assay: NCI human tumor cell panel: T-47D (Breast Cancer); format: cell-based; details: T47D
[2] = read-out: Log10 GI50 (converted)
[3] = read-out: Log10 TGI (converted)

## OCc1ccc(-c2ccc(-c3ccc(CO)s3)[se]2)s1 [compound 675343]
SK-MEL-5
  IC (TGI): > 100 µM
CAKI-1; CAKI-1, read-out: Log10 GI50 (converted)
  GI50: < 0.01 µM
CAKI-1; CAKI-1, read-out: Log10 TGI (converted)
  IC (TGI): < 0.01 µM
HL-60(TB); [2]
  GI50: 61.7 µM
HL-60(TB); read-out: Log10 TGI
  IC (TGI): > 100 µM
CCRF-CEM; [2]
  GI50: 22.4 µM
CCRF-CEM; [3]
  IC (TGI): 60.3 µM
NCI-H23; NCI-H23, read-out: Log10 GI50 (converted)
  GI50: > 100 µM
NCI-H23; NCI-H23, read-out: Log10 TGI (converted)
  IC (TGI): > 100 µM
MDA-MB-231/ATCC; [2]
  GI50: > 100 µM
MDA-MB-231/ATCC; [3]
  IC (TGI): > 100 µM
786-0; 786-0, read-out: Log10 GI50 (converted)
  GI50: > 100 µM
786-0; 786-0, read-out: Log10 TGI (converted)
  IC (TGI): > 100 µM
OVCAR-5; OVCAR-5, read-out: Log10 GI50 (converted)
  GI50: 0.158 µM
OVCAR-5; OVCAR-5, read-out: Log10 TGI (converted)
  IC (TGI): > 100 µM
NCI-H522; NCI-H522, read-out: Log10 GI50 (converted)
  GI50: ≥ 100 µM
NCI-H522; NCI-H522, read-out: Log10 TGI
  IC (TGI): > 100 µM
[1]
  Log10 GI50, Delta: −5.36
  Log10 LC50, Delta: −4.06
  Log10 TGI, Delta: −4.41
  Log10 TGI, Range: 3.59
BT-549; BT-549, read-out: Log10 GI50 (converted)
  GI50: > 100 µM
BT-549; BT-549, read-out: Log10 TGI (converted)
  IC (TGI): > 100 µM
SNB-19; SNB-19, read-out: Log10 GI50 (converted)
  GI50: > 100 µM
SNB-19; SNB-19, read-out: Log10 TGI (converted)
  IC (TGI): > 100 µM
MCF7/ADR-RES; [2]
  GI50: > 100 µM
MCF7/ADR-RES; [3]
  IC (TGI): > 100 µM
RXF-393; RXF-393, read-out: Log10 GI50 (converted)
  GI50: 20.9 µM
RXF-393; RXF-393, read-out: Log10 TGI (converted)
  IC (TGI): > 100 µM
SN12C; [2]
  GI50: > 100 µM
SN12C; [3]
  IC (TGI): > 100 µM
PC-3; PC-3, read-out: Log10 GI50 (converted)
  GI50: > 100 µM
PC-3; PC-3, read-out: Log10 TGI (converted)
  IC (TGI): > 100 µM
SK-OV-3
  GI50: > 100 µM
COLO 205; COLO 205, read-out: Log10 GI50 (converted)
  GI50: < 0.01 µM
COLO 205; COLO 205, read-out: Log10 TGI (converted)
  IC (TGI): 1.05 µM
HS 578T; [2]
  GI50: > 100 µM
HS 578T; [3]
  IC (TGI): > 100 µM
K-562; K562, K-562, read-out: Log10 GI50 (converted)
  GI50: < 0.01 µM
K-562; K562, K-562, read-out: Log10 TGI (converted)
  IC (TGI): 26.3 µM
NCI-H226; NCI-H226, read-out: Log10 GI50 (converted)
  GI50: < 0.01 µM
NCI-H226; NCI-H226, read-out: Log10 TGI (converted)
  IC (TGI): 0.0724 µM
SK-MEL-2; SK-MEL-2, read-out: Log10 GI50 (converted)
  GI50: > 100 µM
SK-MEL-2; SK-MEL-2, read-out: Log10 TGI (converted)
  IC (TGI): > 100 µM
SF-268; SF-268, read-out: Log10 GI50 (converted)
  GI50: > 100 µM
SF-268; SF-268, read-out: Log10 TGI (converted)
  IC (TGI): > 100 µM
A498; A498, read-out: Log10 GI50 (converted)
  GI50: < 0.01 µM
A498; A498, read-out: Log10 TGI (converted)
  IC (TGI): < 0.01 µM
SK-MEL-28; SK-MEL-28, read-out: Log10 GI50 (converted)
  GI50: > 100 µM
SK-MEL-28; SK-MEL-28, read-out: Log10 TGI (converted)
  IC (TGI): > 100 µM
TK-10; TK-10, read-out: Log10 GI50 (converted)
  GI50: < 0.01 µM
TK-10; TK-10, read-out: Log10 TGI (converted)
  IC (TGI): < 0.01 µM
A549/ATCC; [2]
  GI50: > 100 µM
A549/ATCC; [3]
  IC (TGI): > 100 µM
T-47D; [2]
  GI50: 0.724 µM
T-47D; [3]
  IC (TGI): > 100 µM
